Experimental data as given in patent US10508088B2, “Methods using HDAC11 inhibitors” (FORMA Therapeutics, Inc., priority 2016, dated 2019).

What follows are molecules tested against Recombinant N-terminal GST tag full-length human HDAC11 (Homo sapiens (Human), UniProt Q96DB2) (assay: Probe binding HDAC11 assay, time resolved fluorescence (TRF)). Details: read-out: HDAC11 IC50 Range.
Description: The probe binding HDAC11 assay was performed using a time resolved fluorescence (TRF) assay format. Recombinant N-terminal GST tag full-length human HDAC11 was expressed and purified from baculovirus in Sf9 insect cells (SignalChem, # H93-30G-1000). Each assay was performed in 1536 black well microplates (Corning, #3936) in a final volume of 8 μL in assay buffer containing 50 mM HEPES (pH 7.5), 50 mM KCl, 50 mM NaCl, 0.5 mM GSH (L-Glutathione reduced, Sigma #G4251), 0.03% BGG (0.22 μM filtered, Sigma, #G7516-25G), and 0.01% Triton X-100 (Sigma, #T9284-10L). 100 nL of 10-point, 3-fold serial dilution in DMSO was pre-dispensed into respective wells of 1536 assay plates for a final test concentration range of 25 μM to 1.3 nM respectively. The final concentration in the assay of HDAC11 and probe (a fluorescein labeled HDAC 11 inhibitor) was 2.5 nM and 20 nM respectively. 4 μL of 2× probe and 2× anti-GST Terbium (Cisbio, #61GSTXLB) was added to assay plates followed by 4 μL of 2×HDAC11. Plates were incubated for 16 hours at room temperature before time resolved fluorescence was read on the Envision (Excitation at 340 nm, and Emission at 485 nm and 535 nm, Perkin Elmer).
Data from HDAC11 Assays were reported as percent inhibition (inh) compared with control wells based on the following equation: % inh=1−((FLU−AveLow)/(AveHigh−AveLow)) where FLU=measured time resolved fluorescence. AveLow=average time resolved fluorescence of no enzyme control (n=32). AveHigh=average time resolved fluorescence of DMSO control (n=32). IC50 values were determined by curve fitting of the standard 4 parameter logistic fitting algorithm included in the Activity Base software package: IDBS XE Designer Model205. Data is fitted using the Levenburg Marquardt algorithm.

Recombinant N-terminal GST tag full-length human HDAC11, sequence (Q96DB2 whole entry): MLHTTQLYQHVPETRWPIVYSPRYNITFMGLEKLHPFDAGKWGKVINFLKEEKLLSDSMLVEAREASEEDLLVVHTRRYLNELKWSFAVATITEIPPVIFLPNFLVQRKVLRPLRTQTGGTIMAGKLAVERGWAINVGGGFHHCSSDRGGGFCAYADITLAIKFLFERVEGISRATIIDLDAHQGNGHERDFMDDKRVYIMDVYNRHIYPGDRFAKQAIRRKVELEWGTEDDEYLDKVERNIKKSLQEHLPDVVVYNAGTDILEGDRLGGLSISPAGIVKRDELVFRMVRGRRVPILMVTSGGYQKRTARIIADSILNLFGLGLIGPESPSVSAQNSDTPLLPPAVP

Compound | IC50 [nM]
O=C(NO)c1cccc(Nc2nc3cc(Cl)c(Cl)cc3o2)c1 [Example 1-1, 3-(5,6-dichlorobenzo[d]oxazol-2-ylamino)-N-hydroxybenzamide] | < 500
N#Cc1cc2oc(Nc3cccc(C(=O)NO)c3)nc2cc1C(F)(F)F [Example 2-1, 3-(6-cyano-5-(trifluoromethyl)benzo[d]oxazol-2-ylamino)-N-hydroxybenzamide] | < 500
O=C(NO)c1cccc(Nc2nc3cc(C(F)(F)F)c(-c4ccccc4)cc3o2)c1 [Example 3-1, N-hydroxy-3-(6-phenyl-5-(trifluoromethyl)benzo[d]oxazol-2-ylamino)benzamide] | < 500
O=C(NO)c1cc(Nc2nc3cc(Cl)c(Cl)cc3o2)ccc1F [Example 4-1, 5-(5,6-dichlorobenzo[d]oxazol-2-ylamino)-2-fluoro-N-hydroxybenzamide] | < 500
O=C(NO)c1cccc(Nc2nc3cc(Cl)c(Cl)cc3o2)c1F [Example 4-2, 3-((5,6-dichlorobenzo[d]oxazol-2-yl)amino)-2-fluoro-N-hydroxybenzamide] | < 500
O=C(NO)c1ccc(F)c(Nc2nc3cc(Cl)c(Cl)cc3o2)c1 [Example 4-3, 3-((5,6-dichlorobenzo[d]oxazol-2-yl)amino)-4-fluoro-N-hydroxybenzamide] | < 500
O=C(NO)c1cncc(Nc2nc3cc(Cl)c(Cl)cc3o2)c1 [Example 4-5, 5-((5,6-dichlorobenzo[d]oxazol-2-yl)amino)-N-hydroxynicotinamide] | < 500
O=C(NO)c1cc(Nc2nc3cc(Cl)c(Cl)cc3o2)ccn1 [Example 4-6, 4-((5,6-dichlorobenzo[d]oxazol-2-yl)amino)-N-hydroxypicolinamide] | < 500
O=C(NO)c1ccnc(Nc2nc3cc(Cl)c(Cl)cc3o2)c1 [Example 4-7, 2-((5,6-dichlorobenzo[d]oxazol-2-yl)amino)-N-hydroxyisonicotinamide] | < 500
O=C(NO)c1ccnc(Nc2nc3cc(Cl)c(Cl)cc3o2)n1 [Example 4-8, 2-((5,6-dichlorobenzo[d]oxazol-2-yl)amino)-N-hydroxypyrimidine-4-carboxamide] | > 1000
O=C(NO)c1cccc(Nc2nc3cc(Cl)c(Cl)cc3s2)c1 [Example 5-1, 3-(5,6-dichlorobenzo[d]thiazol-2-ylamino)-N-hydroxybenzamide 2,2,2-trifluoroacetate] | < 500
CS(=O)(=O)c1cc2nc(Nc3cccc(C(=O)NO)c3)[nH]c2cc1C#N [Example 6-1, 3-(5-cyano-6-(methylsulfonyl)-1H-benzo[d]imidazol-2-ylamino)-N-hydroxybenzamide] | 500 to 1000
CS(=O)(=O)c1cc2nc(Nc3cccc(C(=O)NO)c3)[nH]c2cc1C(F)(F)F [Example 7-1, N-hydroxy-3-(6-(methylsulfonyl)-5-(trifluoromethyl)-1H-benzo[d]imidazol-2-ylamino)benzamide] | < 500
O=C(NO)c1cccc(Nc2nc3ccccc3[nH]2)c1 [Example 8-1, 3-(1H-benzo[d]imidazol-2-ylamino)-N-hydroxybenzamide] | > 1000
CN(c1cccc(C(=O)NO)c1)c1nc2cc(C#N)c(C(F)(F)F)cc2[nH]1 [Example 9-1, 3-((5-cyano-6-(trifluoromethyl)-1H-benzo[d]imidazol-2-yl)(methyl)amino)-N-hydroxybenzamide] | < 500
Cn1c(Nc2cccc(C(=O)NO)c2)nc2cc(C#N)c(C(F)(F)F)cc21 [Example 10-1, 3-(5-cyano-1-methyl-6-(trifluoromethyl)-1H-benzo[d]imidazol-2-ylamino)-N-hydroxybenzamide] | < 500
Cn1c(Nc2cccc(C(=O)NO)c2)nc2cc(C(F)(F)F)c(C#N)cc21 [Example 11-1, 3-(6-cyano-1-methyl-5-(trifluoromethyl)-1H-benzo[d]imidazol-2-ylamino)-N-hydroxybenzamide] | < 500
Cn1c(Nc2cccc(C(=O)NO)c2)nc2cc(F)c(C#N)cc21 [Example 12-1, 3-(6-cyano-5-fluoro-1-methyl-1H-benzo[d]imidazol-2-ylamino)-N-hydroxybenzamide] | < 500
Cn1c(Nc2cccc(C(=O)NO)c2)nc2cc(Cl)c(Cl)cc21 [Example 13-1, 3-(5,6-dichloro-1-methyl-1H-benzo[d]imidazol-2-ylamino)-N-hydroxybenzamide] | < 500

Compound | IC50 [nM]
CC(C)n1c(Nc2cccc(C(=O)NO)c2)nc2cc(C(F)(F)F)c(C#N)cc21 [Example 14-1, 3-(6-cyano-1-isopropyl-5-(trifluoromethyl)-1H-benzo[d]imidazol-2-ylamino)-N-hydroxybenzamide] | < 500
CC(C)n1c(Nc2cccc(C(=O)NO)c2)nc2cc(C#N)c(C(F)(F)F)cc21 [Example 15-1, 3-(5-cyano-1-isopropyl-6-(trifluoromethyl)-1H-benzo[d]imidazol-2-ylamino)-N-hydroxybenzamide] | < 500
CC(C)n1c(Nc2cccc(C(=O)NO)c2)nc2cc(C(F)(F)F)c(-c3ccccc3)cc21 [Example 16-1, N-hydroxy-3-(1-isopropyl-6-phenyl-5-(trifluoromethyl)-1H-benzo[d]imidazol-2-ylamino)benzamide] | < 500
CC(C)n1c(Nc2cccc(C(=O)NO)c2)nc2cc(-c3ccccc3)c(C(F)(F)F)cc21 [Example 16-2, N-hydroxy-3-((1-isopropyl-5-phenyl-6-(trifluoromethyl)-1H-benzo[d]imidazol-2-yl)amino)benzamide] | < 500
CC(C)n1c(Nc2cccc(C(=O)NO)c2)nc2cc(Cl)c(Cl)cc21 [Example 17-1, 3-(5,6-dichloro-1-isopropyl-1H-benzo[d]imidazol-2-ylamino)-N-hydroxybenzamide] | < 500
COCCn1c(Nc2cccc(C(=O)NO)c2)nc2cc(C(F)(F)F)c(C#N)cc21 [Example 18-1, 3-(6-cyano-1-(2-methoxyethyl)-5-(trifluoromethyl)-1H-benzo[d]imidazol-2-ylamino)-N-hydroxybenzamide] | < 500
COCCn1c(Nc2cccc(C(=O)NO)c2)nc2cc(C#N)c(C(F)(F)F)cc21 [Example 19-1, 3-(5-cyano-1-(2-methoxyethyl)-6-(trifluoromethyl)-1H-benzo[d]imidazol-2-ylamino)-N-hydroxybenzamide] | < 500
COCCn1c(Nc2cccc(C(=O)NO)c2)nc2cc(C(F)(F)F)c(-c3ccccc3)cc21 [Example 20-1, N-hydroxy-3-(1-(2-methoxyethyl)-6-phenyl-5-(trifluoromethyl)-1H-benzo[d]imidazol-2-ylamino)benzamide] | < 500
COCCn1c(Nc2cccc(C(=O)NO)c2)nc2cc(-c3ccccc3)c(C(F)(F)F)cc21 [Example 20-2, N-hydroxy-3-((1-(2-methoxyethyl)-5-phenyl-6-(trifluoromethyl)-1H-benzo[d]imidazol-2-yl)amino)benzamide] | < 500
N#Cc1cc2nc(Nc3cccc(C(=O)NO)c3)n(CCCCCN)c2cc1C(F)(F)F [Example 21-1, 3-((1-(5-aminopentyl)-5-cyano-6-(trifluoromethyl)-1H-benzo[d]imidazol-2-yl)amino)-N-hydroxybenzamide] | < 500
NCCCCCn1c(Nc2cccc(C(=O)NO)c2)nc2cc(Cl)c(Cl)cc21 [Example 22-1, 3-((1-(5-aminopentyl)-5,6-dichloro-1H-benzo[d]imidazol-2-yl)amino)-N-hydroxybenzamide] | < 500
NCCCCCn1c(Nc2cccc(C(=O)NO)c2)nc2cc(Cl)c(F)cc21 [Example 22-2, 3-((1-(5-aminopentyl)-5-chloro-6-fluoro-1H-benzo[d]imidazol-2-yl)amino)-N-hydroxybenzamide] | < 500
COCCn1c(Nc2cccc(C(=O)NO)c2)nc2ccccc21 [Example 23-1, N-hydroxy-3-((1-(2-methoxyethyl)-1H-benzo[d]imidazol-2-yl)amino)benzamide] | > 1000
O=C(NO)c1cc(Nc2nc3ccccc3[nH]2)cc2ccccc12 [Example 23-2, 3-((1H-benzo[d]imidazol-2-yl)amino)-N-hydroxy-1-naphthamide] | > 1000
COCCn1c(Nc2cc(C(=O)NO)c3ccccc3c2)nc2ccccc21 [Example 23-3, N-hydroxy-3-((1-(2-methoxyethyl)-1H-benzo[d]imidazol-2-yl)amino)-1-naphthamide] | > 1000
Cc1cc2nc(Nc3cccc(C(=O)NO)c3)[nH]c2cc1C [Example 23-4, 3-((5,6-dimethyl-1H-benzo[d]imidazol-2-yl)amino)-N-hydroxybenzamide] | < 500
COCCn1c(Nc2cccc(C(=O)NO)c2)nc2c(OC)cccc21 [Example 24-1, N-hydroxy-3-((4-methoxy-1-(2-methoxyethyl)-1H-benzo[d]imidazol-2-yl)amino)benzamide] | > 1000
COCCn1c(Nc2cccc(C(=O)NO)c2)nc2cccc(OC)c21 [Example 24-2, N-hydroxy-3-((7-methoxy-1-(2-methoxyethyl)-1H-benzo[d]imidazol-2-yl)amino)benzamide] | > 1000
